In this test the target is recombinant sEH (soluble epoxide hydrolase, EPHX2) (Homo sapiens (Human), UniProt P34913). The test can be described thus: biochemical fluorometric sEH inhibition assay with Phome substrate. The note with it: recombinant sEH purified from Sf9 insect cells, 2 nM sEH, 5 μM Phome, 60 minutes at 30° C. As for the experimental part:
Compounds were tested in a biochemical screening assay using recombinant sEH purified from Sf9 insect cells and an artificial substrate, (3-phenyl-oxiranyl)-acetic acid cyano-(6-methoxy-naphtalen-2-yl)-methyl ester, Phome. The biochemical assay was performed in analogy to a fluorometric described in the literature (P. D. Jones et al., Anal. Biochem. 2005, 343, 66-75). The assay principle bases on the sEH-catalyzed hydrolysis of an artificial α-cyano-ester substrate. O-deacetylation liberates a cyanohydrin intermediate that rapidly decomposes to the highly fluorescent 6-methoxy-2-naphtaldehyde. To discriminate sample autofluorescence, the assay was carried out as a kinetic measurement with two time points. The first measurement is performed immediately before addition of the substrate and the […] measurement is done after completion of the assay. The assay format is either in 96- or in 384-well format.
Details of the assay using a 96-well plate format are described below. 40 μl recombinant sEH enzyme and 5 μl test compound are pre-incubated for 15 minutes at 30° C. Following pre-incubation, the reaction is started by addition of 5 μl Phome. The assay mixture containing 2 nM final sEH concentration, test compound ranging in a concentration from 0.0001-10 μM and 5 μM Phome is incubated for 60 minutes at 30° C.
Fluorescence is measured with any suitable detector for instance a TECAN Safire or Tecan Ultra at […]. % inhibition of recombinant sEH activity is used for calculation of corresponding IC50 values as illustrated and described in the examples.
The NCBI gene bank reference sequence with the accession number NM_001979 for EPHX2/sEH was applied for recombinant protein production:
The following commercially available materials have been used: • Incubation reagent: 25 mM Hepes (Sigma-Aldrich, Cat. No H-3375), 0.01% bovine albumin (Sigma-Aldrich Cat. No PA9205) • Substrate: 3-Phenyl-oxiranyl)-acetic acid cyano-(6-methoxy-naphtalen-2-yl)-methyl ester, Phome (Biozol Cat. No 10003134) • Microtiter plates: 96-well plates (Greiner Cat. No 655180; Costar Cat. No 3915)
recombinant sEH (soluble epoxide hydrolase, EPHX2), sequence (P34913 whole entry): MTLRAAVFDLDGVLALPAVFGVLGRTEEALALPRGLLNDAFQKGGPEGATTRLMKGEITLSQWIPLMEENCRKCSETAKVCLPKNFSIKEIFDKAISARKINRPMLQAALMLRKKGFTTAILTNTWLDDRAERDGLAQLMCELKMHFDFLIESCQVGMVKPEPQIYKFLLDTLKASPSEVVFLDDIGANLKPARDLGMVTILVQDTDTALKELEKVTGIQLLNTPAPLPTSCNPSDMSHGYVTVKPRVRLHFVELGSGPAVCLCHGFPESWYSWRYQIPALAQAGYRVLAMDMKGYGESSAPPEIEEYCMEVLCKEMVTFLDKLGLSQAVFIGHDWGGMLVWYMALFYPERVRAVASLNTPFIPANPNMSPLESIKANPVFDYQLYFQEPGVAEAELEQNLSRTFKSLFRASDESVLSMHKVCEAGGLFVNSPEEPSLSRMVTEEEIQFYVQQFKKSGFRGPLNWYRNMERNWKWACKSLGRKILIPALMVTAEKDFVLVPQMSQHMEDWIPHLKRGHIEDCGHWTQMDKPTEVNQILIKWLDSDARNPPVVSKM
For `O=C1CCC(C(=O)N2CCN(Cc3ccc(C(=O)NCc4ccccc4OC(F)(F)F)s3)CC2)N1` (centres unmarked) [Example 102], the IC50 came out at 2.33 nM.

Turning to `Cc1cc(=O)oc(C)c1C(=O)N1CCN(Cc2ccc(C(=O)NCc3ccccc3OC(F)(F)F)s2)CC1` [Example 35], the IC50 is 0.916 nM.

As for `O=C(NCc1ccccc1OC(F)(F)F)c1ccc(CN2CCN(C(=O)c3ncccc3O)CC2)s1` [Example 82], the IC50 was determined as 2.37 nM.

As for `COc1cccnc1C(=O)N1CCN(Cc2ncc(C(=O)NCc3ccc(Cl)cc3Cl)s2)CC1` [Example 196], the IC50 came to 36.4 nM.

On to `O=C(NCc1ccc(Cl)cc1Cl)c1cnc(CN2CCN(C(=O)C3CCOC3)CC2)s1` (centres unmarked) [Example 183], for which the half-inhibitory concentration (IC50) turned out to be 18.8 nM.

In the case of `COc1ccc(CNC(=O)c2ccc(CN3CCN(C(=O)c4c(C)cc(=O)oc4C)CC3)s2)c(C(F)(F)F)c1` [Example 9], the IC50 came to 3.06 nM.

On to `COc1ccc(CNC(=O)c2ccc(CN3CCN(c4cc(C)ccn4)CC3)s2)c(OC(F)(F)F)c1` [Example 127], for which the 50% inhibitory concentration (IC50) was 1.73 nM.

Consider `Cc1ccc(O)c(C(=O)N2CCN(Cc3ccc(C(=O)NCc4ccccc4OC(F)(F)F)s3)CC2)n1` [Example 79], for which the 50% inhibitory concentration (IC50) was 2.54 nM.

Turning to `O=C(NCc1ccccc1C(F)(F)F)c1ccc(CN2CCN(C(=O)c3ccc4nccn4c3)CC2)s1` [Example 15], the IC50 was 0.604 nM.

Turning to `O=C(NCc1ccc(Cl)cc1Cl)c1ccc(CN2CCN(C(=O)c3nccc4ccccc34)CC2)s1` [Example 65], the IC50 came out at 1.19 nM.

With `COc1ccc(CNC(=O)c2ccc(CN3CCN(C)C(=O)C3)s2)c(OC(F)(F)F)c1` [Example 134], the 50% inhibitory concentration (IC50) was 2.15 nM.

For the molecule `O=C(NCc1ccccc1C(F)(F)F)c1ccc(CN2CCN(C(=O)c3cccnc3)CC2)s1` [Example 4], the half-maximal inhibitory concentration (IC50) is 0.168 nM.

Consider `Cc1noc(C)c1C(=O)N1CCN(Cc2ncc(C(=O)NCc3ccc(Cl)cc3Cl)s2)CC1` [Example 160], for which the IC50 was 1.41 nM.

As to `Cn1cccc1C(=O)N1CCN(Cc2ccc(C(=O)NCc3ccccc3C(F)(F)F)s2)CC1` [Example 51], the half-maximal inhibitory concentration (IC50) turned out to be 0.994 nM.

Consider `Cn1ncc(N2CCN(Cc3ccc(C(=O)NCc4ccc(Cl)cc4Cl)s3)CC2)cc1=O` [Example 108], for which the IC50 amounted to 2.15 nM.

On to `Cn1nc(C(C)(C)C)cc1C(=O)N1CCN(Cc2ccc(C(=O)NCc3ccccc3C(F)(F)F)s2)CC1` [Example 25], for which the IC50 came out at 2.76 nM.

Consider `Cc1cc(=O)oc(C)c1C(=O)N1CCN(Cc2ccc(C(=O)NCCCn3nc(C(F)(F)F)cc3C)s2)CC1` [Example 11], for which the IC50 amounted to 2.95 nM.

Turning to `O=C(NCc1ccccc1OC(F)(F)F)c1ccc(CN2CCN(c3ccc(CO)cn3)CC2)s1` [Example 87], the half-maximal inhibitory concentration (IC50) is 2.41 nM.

On to `CC(O)C(=O)N1CCN(Cc2ncc(C(=O)NCc3ccc(Cl)cc3Cl)s2)CC1` (centres unmarked) [Example 189], for which the half-inhibitory concentration (IC50) was 28.9 nM.

Turning to `COc1ccc(CNC(=O)c2ccc(CN3CCN(C(=O)C(C)O)CC3)s2)c(OC(F)(F)F)c1` (centres unmarked) [Example 32], the 50% inhibitory concentration (IC50) is 0.756 nM.

For the molecule `CC1(C)SCN[C@H]1C(=O)N1CCN(Cc2ccc(C(=O)NCc3ccc(Cl)cc3Cl)s2)CC1` [Example 103], the IC50 came out at 2.32 nM.

Take `Cc1n[nH]c(C)c1C(=O)N1CCN(Cc2ncc(C(=O)NCc3ccc(Cl)cc3Cl)s2)CC1` [Example 206]: the IC50 amounted to 5.24 nM.

Consider `COc1ccc(CNC(=O)c2ccc(CN3CCN(c4nccn4C)CC3)s2)c(OC(F)(F)F)c1` [Example 113], for which the half-maximal inhibitory concentration (IC50) was found to be 1.67 nM.

As for `NC(CF)C(=O)N1CCN(Cc2ccc(C(=O)NCc3ccc(Cl)cc3Cl)s2)CC1` (centres unmarked) [Example 48], the IC50 was determined as 2.69 nM.

`O=C(NCc1ccccc1OC(F)(F)F)c1ccc(CN2CCN(C(=O)C3COCCO3)CC2)s1` (centres unmarked) [Example 147]: the IC50 came out at 1.96 nM.

As for `CNC(=O)c1cccnc1N1CCN(Cc2ccc(C(=O)NCc3ccc(Cl)cc3Cl)s2)CC1` [Example 14], the concentration for half-maximal inhibition (IC50) amounted to 2.93 nM.

Take `CC(O)C(=O)N1CCN(Cc2ccc(C(=O)NCc3ccccc3OC(F)(F)F)s2)CC1` (centres unmarked) [Example 155]: the IC50 was 1.99 nM.

Regarding `COc1ccc(CNC(=O)c2ccc(CN3CCN(c4ccc(CO)cn4)CC3)s2)c(OC(F)(F)F)c1` [Example 146], the IC50 worked out at 1.94 nM.

For the molecule `Cc1cc(C(=O)NCc2ccccc2OC(F)(F)F)sc1CN1CCN(C(=O)c2c(C)cc(=O)oc2C)CC1` [Example 148], the IC50 was determined as 1.87 nM.

For the molecule `COc1cccnc1C(=O)N1CCN(Cc2ccc(C(=O)NCc3ccccc3OC(F)(F)F)s2)CC1` [Example 97], the IC50 amounted to 1.6 nM.

Turning to `Cc1cc(=O)oc(C)c1C(=O)N1CCN(Cc2ccc(C(=O)NCc3ccc(C#N)cc3Cl)s2)CC1` [Example 80], the concentration for half-maximal inhibition (IC50) was determined as 2.53 nM.

`CC(C)(CO)C(=O)N1CCN(Cc2ncc(C(=O)NCc3ccc(Cl)cc3Cl)s2)CC1` [Example 176]: the concentration for half-maximal inhibition (IC50) is 13.4 nM.

As to `O=C(NCc1ccc(Cl)cc1Cl)c1cnc(CN2CCN(C(=O)c3cccc(O)n3)CC2)s1` [Example 175], the IC50 came out at 20.4 nM.

On to `O=C(NCc1ccccc1OC(F)(F)F)c1ccc(CN2CCN(CCO)CC2)s1` [Example 125], for which the IC50 was 1.68 nM.

As to `Cc1ccc(C(=O)N2CCN(Cc3ccc(C(=O)NCc4ccccc4C(F)(F)F)s3)CC2)s1` [Example 152], the IC50 turned out to be 2.07 nM.

With `CO[C@H](C)C(=O)N1CCN(Cc2ccc(C(=O)NCc3ccccc3OC(F)(F)F)s2)CC1` [Example 93], the IC50 turned out to be 1.31 nM.

Consider `Cc1cc(=O)oc(C)c1C(=O)N1CCN(Cc2ccc(C(=O)NCCC(C)(C)C)s2)CC1` [Example 10], for which the half-inhibitory concentration (IC50) was determined as 2.94 nM.

Consider `O=C(NCc1ccc(Cl)cc1Cl)c1cnc(CN2CCN(C(=O)c3ccccn3)CC2)s1` [Example 186], for which the IC50 is 33.7 nM.

As for `Cc1noc(C)c1C(=O)N1CCN(Cc2ccc(C(=O)NCc3ccccc3C(F)(F)F)s2)CC1` [Example 88], the IC50 was 1.44 nM.

Regarding `Cc1ccc(C(=O)N2CCN(Cc3ccc(C(=O)NCc4ccc(Cl)cc4Cl)s3)CC2)s1` [Example 154], the 50% inhibitory concentration (IC50) was 2.05 nM.

As to `Cc1cc(=O)oc(C)c1C(=O)N1CCN(Cc2ccc(C(=O)NCc3ccc(Cl)cc3Cl)s2)CC1` [Example 59], the IC50 was determined as 1.15 nM.

As to `CC[C@@H](O)C(=O)N1CCN(Cc2ccc(C(=O)NCc3ccccc3OC(F)(F)F)s2)CC1` [Example 96], the half-inhibitory concentration (IC50) was determined as 1.57 nM.

Turning to `COc1cc(CNC(=O)c2ccc(CN3CCN(C(=O)[C@H](O)C(C)C)CC3)s2)ccn1` [Example 30, 5-[4-((R)-2-Hydroxy-3-methyl-butyryl)-piperazin-1-ylmethyl]-thiophene-2-carboxylic acid (2-methoxy-pyridin-4-ylmethyl)-amide], the IC50 came to 0.803 nM.

Regarding `Cc1cc(C(=O)NCCC(C)(C)C)sc1CN1CCN(C(=O)c2c(C)cc(=O)oc2C)CC1` [Example 28], the IC50 was found to be 0.803 nM.

As to `CN1CCC[C@H]1C(=O)N1CCN(Cc2ncc(C(=O)NCc3ccc(Cl)cc3Cl)s2)CC1` [Example 184], the 50% inhibitory concentration (IC50) was 115 nM.

In the case of `NC1(C(=O)N2CCN(Cc3ccc(C(=O)NCc4ccc(Cl)cc4Cl)s3)CC2)CC1` [Example 109], the concentration for half-maximal inhibition (IC50) was 2.16 nM.

Consider `O=C(NCc1ccc(Cl)cc1Cl)c1cnc(CN2CCN(C(=O)C3CC3)CC2)s1` [Example 171], for which the half-inhibitory concentration (IC50) was 15.8 nM.

Consider `Cc1noc(C)c1C(=O)N1CCN(Cc2ccc(C(=O)NCc3ccc(Cl)cc3Cl)s2)CC1` [Example 2], for which the IC50 came out at 0.502 nM.

As for `O=C(NCc1ccccc1OC(F)(F)F)c1ccc(CN2CCN(C(=O)N3CCCC3)CC2)s1` [Example 19], the IC50 was 0.695 nM.

Consider `Cc1cc(=O)oc(C)c1C(=O)N1CCN(Cc2ccc(C(=O)NCc3ccccc3C(F)(F)F)s2)CC1` [Example 36], for which the IC50 amounted to 0.906 nM.

Regarding `CC(C)(O)C(=O)N1CCN(Cc2ccc(C(=O)NCc3ccccc3OC(F)(F)F)s2)CC1` [Example 123], the IC50 was 1.69 nM.

Regarding `CCOc1ccccc1C(=O)N1CCN(Cc2ccc(C(=O)NCc3ccccc3C(F)(F)F)s2)CC1` [Example 53], the IC50 came to 1.02 nM.

Consider `Cc1cccnc1N1CCN(Cc2ccc(C(=O)NCc3ccccc3OC(F)(F)F)s2)CC1=O` [Example 112], for which the 50% inhibitory concentration (IC50) came to 1.64 nM.

Take `CC(C)(O)CC(=O)N1CCN(Cc2ncc(C(=O)NCc3ccc(Cl)cc3Cl)s2)CC1` [Example 185]: the IC50 is 13.8 nM.

In the case of `COc1ccc(CNC(=O)c2ccc(CN3CCN(c4ncccc4C)C(=O)C3)s2)c(OC(F)(F)F)c1` [Example 126], the IC50 was 1.75 nM.

In the case of `O=C(NCc1ccccc1OC(F)(F)F)c1ccc(CN2CCN(C(=O)c3cccc(O)n3)CC2)s1` [Example 132], the 50% inhibitory concentration (IC50) is 2.09 nM.

Take `COCC(=O)N1CCN(Cc2ncc(C(=O)NCc3ccc(Cl)cc3Cl)s2)CC1` [Example 192]: the half-maximal inhibitory concentration (IC50) is 35.3 nM.

Regarding `O=C(NCc1ccccc1OC(F)(F)F)c1ccc(CN2CCN(C(=O)CN3CCOC3=O)CC2)s1` [Example 156], the IC50 came out at 2 nM.

As for `COCCCC(=O)N1CCN(Cc2ccc(C(=O)NCc3ccccc3OC(F)(F)F)s2)CC1` [Example 140], the IC50 was 1.81 nM.

The record behind these values is patent US9776991B2, “Thienomethylpiperazine derivatives as inhibitors of soluble epoxide hydrolase” (SANOFI, priority 2013, dated 2017).
